This assay addresses T1, Bcl-2 protein (Homo sapiens, UniProt P10415, DELINS35-91DVEENRTEAPEGTESE, form not given).
T1 construct: fused on or other part: Bcl-xL (Q07817) residues 29-44 stand in place of Bcl-2's own unstructured loop 35-91; The C-terminal membrane anchor (208-239) is absent
In words: Bcl-2 fluorescence polarization assay (FPA) binding. The conditions noted are these: 10 nM Bcl-2 protein, 1 nM fluorescein-labeled BAX peptide, room temperature, read-out: Bcl-2 FPA 11pt Ki. In short, it runs like this: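 Competitive fluorescence polarization with 10 nM Bcl-2 protein and 1 nM fluorescein-labeled BAX peptide in 20 mM phosphate pH 7.4, 1 mM EDTA, 0.05% PF-68. Compound dilutions in DMSO spanned […] to 10 pM; mix shaken 2 min, polarization read at room temperature (ex 485/em 530 nm); Ki values calculated.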
Background: Fluorescence polarisation rises when a labelled molecule tumbles more slowly, as on binding a larger partner.

As usually defined, the Ki is the dissociation constant of the complex between target and ligand, obtained from inhibition or displacement.

T1 sequence (P10415 with tags, fused parts or gaps with the stated changes): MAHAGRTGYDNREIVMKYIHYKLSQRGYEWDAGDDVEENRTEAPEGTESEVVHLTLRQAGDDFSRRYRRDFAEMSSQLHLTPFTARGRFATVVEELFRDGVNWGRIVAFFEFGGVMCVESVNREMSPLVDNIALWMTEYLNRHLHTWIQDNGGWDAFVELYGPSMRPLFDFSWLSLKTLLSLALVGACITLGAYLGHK

Regarding `CC12CC3CC(C)(C1)CC(N1CCN(c4ccc(C(=O)NS(=O)(=O)c5ccc(NCC6CCCCC6)c([N+](=O)[O-])c5)cc4)CC1)(C3)C2` [Example 55, N-({4-[(cyclohexylmethyl)amino]-3-nitrophenyl}sulfonyl)-4-{4-[3,5-dimethyladamantan-1-yl]piperazin-1-yl}benzamide], the Ki was 352 nM.
Take `C[C@@H]1[C@@H](Nc2ccccc2CN2CCN(c3ccc(C(=O)NS(=O)(=O)c4ccc(NCC5CCOCC5)c([N+](=O)[O-])c4)cc3)CC2)C[C@@H]2C[C@H]1C2(C)C` [Example 32, N-({3-nitro-4-[(tetrahydro-2H-pyran-4-ylmethyl)amino]phenyl}sulfonyl)-4-[4-(2-{[(1R,2S,3S,5S)-2,6,6-trimethylbicyclo[3.1.1]hept-3-yl]amino}benzyl)piperazin-1-yl]benzamide]: the Ki came out at 91.9 nM.
As to `O=C(NS(=O)(=O)c1ccc(NCC2CCOCC2)c([N+](=O)[O-])c1)c1ccc(N2CCN(Cc3ccccc3C3=CC4CC5CC(C4)CC3C5)CC2)cc1` [Example 34, N-({3-nitro-4-[(tetrahydro-2H-pyran-4-ylmethyl)amino]phenyl}sulfonyl)-4-(4-{2-[tricyclo[4.3.1.1^3,8]undec-4-en-4-yl]benzyl}piperazin-1-yl)benzamide], the inhibition constant Ki turned out to be 47.7 nM.
Consider `CC1(C)[C@H]2CC[C@]1(CS(=O)(=O)NC(=O)c1ccc(N3CCN(Cc4ccccc4-c4ccc(Cl)cc4)CC3)cc1)C(=O)C2` [Example 57, 4-{4-[(4′-chlorobiphenyl-2-yl)methyl]piperazin-1-yl}-N-({[(1R,4S)-7,7-dimethyl-2-oxobicyclo[2.2.1]hept-1-yl]methyl}sulfonyl)benzamide], for which the Ki is 134 nM.
Then `O=C(NS(=O)(=O)c1ccc(NCC2CCOCC2)c([N+](=O)[O-])c1)c1ccc(N2CCN(Cc3ccccc3N(C(=O)CCc3ccccc3)C3CC4CC3C3CCCC43)CC2)cc1` (stereo not shown) [Example 70, N-({3-nitro-4-[(tetrahydro-2H-pyran-4-ylmethyl)amino]phenyl}sulfonyl)-4-(4-{2-[octahydro-1H-4,7-methanoinden-5-yl(3-phenylpropanoyl)amino]benzyl}piperazin-1-yl)benzamide], with 35.4 nM; and `O=C(NS(=O)(=O)c1ccc(NC2CCOCC2)c([N+](=O)[O-])c1)c1ccc(NCC2C3CC4CC(C3)CC2C4)cc1` (stereo not shown) [Example 50, 4-{[adamantan-2-ylmethyl]amino}-N-{[3-nitro-4-(tetrahydro-2H-pyran-4-ylamino)phenyl]sulfonyl}benzamide], with 3560 nM; and `CC12CC3CC(Br)(C1)CC(CN1CCN(c4ccc(C(=O)NS(=O)(=O)c5ccc(NCC6CCCCC6)c([N+](=O)[O-])c5)cc4)CC1)(C3)C2` (stereo not shown) [Example 12, 4-(4-{[3-bromo-5-methyladamantan-1-yl]methyl}piperazin-1-yl)-N-({4-[(cyclohexylmethyl)amino]-3-nitrophenyl}sulfonyl)benzamide], with 304 nM.
`O=C(NS(=O)(=O)c1ccc(NC2CCOCC2)c([N+](=O)[O-])c1)c1ccc(NC2C3CC4CC(C3)CC2C4)cc1` (stereo not shown) [Example 84, 4-[adamantan-2-ylamino]-N-{[3-nitro-4-(tetrahydro-2H-pyran-4-ylamino)phenyl]sulfonyl}benzamide]: the Ki worked out at 2380 nM.
Under `C[C@@H]1[C@H]2C[C@@H](C[C@H]1Oc1ccc(C(=O)NS(=O)(=O)c3ccc(NC4CCOCC4)c([N+](=O)[O-])c3)cc1)C2(C)C` [Example 85, N-{[3-nitro-4-(tetrahydro-2H-pyran-4-ylamino)phenyl]sulfonyl}-4-{[(1R,2R,3R,5S)-2,6,6-trimethylbicyclo[3.1.1]hept-3-yl]oxy}benzamide] stands 2880 nM; under `O=C(NS(=O)(=O)c1ccc(NCC2CCOCC2)c([N+](=O)[O-])c1)c1ccc(N2CCN(Cc3ccccc3-c3cn(C45CC6CC(CC(C6)C4)C5)nc3C(=O)N(c3ccccc3)c3ccccc3)CC2)cc1` [Example 24, 1-[adamantan-1-yl]-4-{2-[(4-{4-[({3-nitro-4-[(tetrahydro-2H-pyran-4-ylmethyl)amino]phenyl}sulfonyl)carbamoyl]phenyl}piperazin-1-yl)methyl]phenyl}-N,N-diphenyl-1H-pyrazole-3-carboxamide], 2270 nM.
Take `O=C(NS(=O)(=O)c1ccc(NC2CCOCC2)c([N+](=O)[O-])c1)c1ccc(N2CCN(C(=O)CC34CC5CC(CC(C5)C3)C4)CC2)cc1` [Example 81, 4-{4-[adamantan-1-ylacetyl]piperazin-1-yl}-N-{[3-nitro-4-(tetrahydro-2H-pyran-4-ylamino)phenyl]sulfonyl}benzamide]: the inhibition constant (Ki) is 4730 nM.
For the compound `O=C(NS(=O)(=O)c1ccc(NCC2CCCCC2)c([N+](=O)[O-])c1)c1ccc2cc(-c3ccc(O)c(C45CC6CC(CC(C6)C4)C5)c3)ccc2c1` [Example 48, 6-{3-[adamantan-1-yl]-4-hydroxyphenyl}-N-({4-[(cyclohexylmethyl)amino]-3-nitrophenyl}sulfonyl)-2-naphthamide], the Ki was determined as 1390 nM.
With `C[C@@H]1[C@@H](Nc2cccc(-c3ccc(C(=O)NS(=O)(=O)c4ccc(NCC5CCCCC5)c([N+](=O)[O-])c4)cc3)c2)C[C@H]2C[C@@H]1C2(C)C` [Example 4, N-({4-[(cyclohexylmethyl)amino]-3-nitrophenyl}sulfonyl)-3′-{[(1S,2S,3S,5R)-2,6,6-trimethylbicyclo[3.1.1]hept-3-yl]amino}biphenyl-4-carboxamide], the Ki amounted to 191 nM.
Under `C[C@@H]1[C@@H](N(CCCc2ccccc2)C2CCN(c3ccc(C(=O)NS(=O)(=O)c4ccc(NC5CCOCC5)c([N+](=O)[O-])c4)cc3)CC2)C[C@H]2C[C@@H]1C2(C)C` [Example 45, N-{[3-nitro-4-(tetrahydro-2H-pyran-4-ylamino)phenyl]sulfonyl}-4-(4-{(3-phenylpropyl)[(1S,2S,3S,5R)-2,6,6-trimethylbicyclo[3.1.1]hept-3-yl]amino}piperidin-1-yl)benzamide] stands 79 nM; under `CC(=O)N(C1CCN(c2ccc(C(=O)NS(=O)(=O)c3ccc(NCC4CCCCC4)c([N+](=O)[O-])c3)cc2)CC1)[C@H]1C[C@H]2C[C@@H]([C@@H]1C)C2(C)C` [Example 2, 4-(4-{acetyl[(1S,2S,3S,5R)-2,6,6-trimethylbicyclo[3.1.1]hept-3-yl]amino}piperidin-1-yl)-N-({4-[(cyclohexylmethyl)amino]-3-nitrophenyl}sulfonyl)benzamide], 220 nM; under `O=C(NS(=O)(=O)c1ccc(NCC2CCOCC2)c([N+](=O)[O-])c1)c1ccc(N2CCN(Cc3ccccc3-c3ccc(C(=O)Nc4ccc5oc(-c6ccccc6)nc5c4)o3)CC2)cc1` [Example 64, 5-{2-[(4-{4-[({3-nitro-4-[(tetrahydro-2H-pyran-4-ylmethyl)amino]phenyl}sulfonyl)carbamoyl]phenyl}piperazin-1-yl)methyl]phenyl}-N-(2-phenyl-1,3-benzoxazol-5-yl)-2-furamide], 1470 nM.
Then `O=C(NS(=O)(=O)c1ccc(NCC2CCOCC2)c([N+](=O)[O-])c1)c1ccc(N2CCN(Cc3cc([N+](=O)[O-])ccc3N3CC4CCC(CC4)C3)CC2)cc1` [Example 22, 4-{4-[2-(3-azabicyclo[3.2.2]non-3-yl)-5-nitrobenzyl]piperazin-1-yl}-N-({3-nitro-4-[(tetrahydro-2H-pyran-4-ylmethyl)amino]phenyl}sulfonyl)benzamide], with 31.4 nM; and `CC1C2CC(C=C2c2ccccc2CN2CCN(c3ccc(C(=O)NS(=O)(=O)c4ccc(NCC5CCOCC5)c([N+](=O)[O-])c4)cc3)CC2)C1(C)C` (stereo not shown) [Example 28, N-({3-nitro-4-[(tetrahydro-2H-pyran-4-ylmethyl)amino]phenyl}sulfonyl)-4-(4-{2-[5,5,6-trimethylbicyclo[2.2.1]hept-2-en-2-yl]benzyl}piperazin-1-yl)benzamide], with 29.6 nM.
Turning to `O=C(NS(=O)(=O)c1ccc(NC2CCOCC2)c([N+](=O)[O-])c1)c1ccc(NCC23CC4CC(CC(C4)C2)C3)cc1` [Example 82, 4-{[adamantan-1-ylmethyl]amino}-N-{[3-nitro-4-(tetrahydro-2H-pyran-4-ylamino)phenyl]sulfonyl}benzamide], the inhibitory constant (Ki) was determined as 2180 nM.
For the compound `CC1(C)C2C=C(c3ccccc3CN3CCN(c4ccc(C(=O)NS(=O)(=O)c5ccc(NCC6CCOCC6)c([N+](=O)[O-])c5)cc4)CC3)C1(C(=O)NCc1ccccc1)CC2` (stereo not shown) [Example 30, N-benzyl-7,7-dimethyl-2-{2-[(4-{4-[({3-nitro-4-[(tetrahydro-2H-pyran-4-ylmethyl)amino]phenyl}sulfonyl)carbamoyl]phenyl}piperazin-1-yl)methyl]phenyl}bicyclo[2.2.1]hept-2-ene-1-carboxamide], the Ki came out at 295 nM.
Then `O=C(NS(=O)(=O)c1ccc(NCC2CCOCC2)c([N+](=O)[O-])c1)c1ccc(N2CCN(Cc3ccccc3-c3ccc(CN4C5CCCC4CC5)s3)CC2)cc1` [Example 40, 4-[4-(2-{5-[8-azabicyclo[3.2.1]oct-8-ylmethyl]-2-thienyl}benzyl)piperazin-1-yl]-N-({3-nitro-4-[(tetrahydro-2H-pyran-4-ylmethyl)amino]phenyl}sulfonyl)benzamide], with 54.7 nM.
Consider `C[C@@H]1[C@@H](NC(=O)C23CCC(C=C2c2ccccc2CN2CCN(c4ccc(C(=O)NS(=O)(=O)c5ccc(NCC6CCOCC6)c([N+](=O)[O-])c5)cc4)CC2)C3(C)C)C[C@H]2C[C@@H]1C2(C)C` [Example 36, 7,7-dimethyl-2-{2-[(4-{4-[({3-nitro-4-[(tetrahydro-2H-pyran-4-ylmethyl)amino]phenyl}sulfonyl)carbamoyl]phenyl}piperazin-1-yl)methyl]phenyl}-N-[(1S,2S,3S,5R)-2,6,6-trimethylbicyclo[3.1.1]hept-3-yl]bicyclo[2.2.1]hept-2-ene-1-carboxamide], for which the inhibition constant Ki came to 121 nM.

The record behind these values is patent US8188077B2, “Apoptosis-inducing agents for the treatment of cancer and immune and autoimmune diseases” (Abbott Laboratories, priority 2010, dated 2012).
